The results in this text go back to patent US11541055B2, “Inhibitors of human immunodeficiency virus replication” (ViiV Healthcare UK (No. 5) LIMITED, priority 2018, dated 2023).

Data set [1] is described as follows: Compound cytotoxicity, XTT-based colorimetric assay. The class given is cell-based. As to conditions: human; uninfected MT2 cells, day 4, XTT. An outline of the steps:
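Run under the antiviral-assay protocol but without virus. Viability was read on day 4 and CC50 values were derived from the readout.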

Data set [2] deals with recombinant NL4-3 virus (Renilla luciferase) in MT-2 cells. The data set can be described thus: HIV cell culture assay (antiviral activity, luciferase readout). It is filed as cell-based. Particulars: Renilla, NL43. The method, boiled down: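 Antiviral EC50 was derived via the median effect equation from luciferase signal. The signal came from MT-2 cultures infected for 4–5 days with a nef-deleted, Renilla luciferase-expressing NL4-3 reporter virus (made in 293T cells) in the presence of compound dilutions.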

Consider `Cn1nc(NS(C)(=O)=O)c2c(Cl)ccc(-n3c([C@H](Cc4cc(F)cc(F)c4)NC(=O)Cn4nc(C(F)F)c5c4C(F)(F)[C@@H]4C[C@H]54)nc4cc(-c5cc(C(F)(F)F)cc(C(F)(F)F)n5)ccc4c3=O)c21` (atropisomer, axis not shown; (P)) [Example 58, N—((S)-1-(7-(4,6-bis(trifluoromethyl)pyridin-2-yl)-(3P)-3-(4-chloro-1-methyl-3-(methylsulfonamido)-1H-indazol-7-yl)-4-oxo-3,4-dihydroquinazolin-2-yl)-2-(3,5-difluorophenyl)ethyl)-2-((3bS,4aR)-3-(difluoromethyl)-5,5-difluoro-3b,4,4a,5-tetrahydro-1H-cyclopropa[3,4]cyclopenta[1,2-c]pyrazol-1-yl)acetamide], for which, in data set [1], the CC50 (in general, the concentration at which the toxic effect on the cells reaches its halfway point) at 4 days is > 500 nM. The EC50 (usually the concentration at which the effect is half-maximal) in data set [2] was determined as 0.95 nM.
The like results for `CCC(C)c1nccc(-c2ccc3c(=O)n(-c4ccc(Cl)c5c(NS(C)(=O)=O)nn(C)c45)c([C@H](Cc4cc(F)cc(F)c4)NC(=O)Cn4nc(C(F)F)c5c4C(F)(F)[C@@H]4C[C@H]54)nc3c2)n1` (stereo partly drawn) [Example 70, N-((1S)-1-(7-(2-(sec-butyl)pyrimidin-4-yl)-(3P)-3-(4-chloro-1-methyl-3-(methylsulfonamido)-1H-indazol-7-yl)-4-oxo-3,4-dihydroquinazolin-2-yl)-2-(3,5-difluorophenyl)ethyl)-2-((3bS,4aR)-3-(difluoromethyl)-5,5-difluoro-3b,4,4a,5-tetrahydro-1H-cyclopropa[3,4]cyclopenta[1,2-c]pyrazol-1-yl)acetamide] were, in that order, > 500 nM and 0.26 nM.
The like results for `CS(=O)(=O)Nc1nn(CC(F)(F)F)c2c(-n3c([C@H](Cc4cc(F)cc(F)c4)NC(=O)Cn4nc(C(F)F)c5c4C(F)(F)[C@@H]4C[C@H]54)nc4cc(-c5nccc(C(F)(F)F)n5)ccc4c3=O)ccc(Cl)c12` (atropisomer, axis not shown) [Example 102] were, in that order, > 500 nM and 0.13 nM.
The like results for `CCc1cc(C)nc(-c2ccc3c(=O)n(-c4ccc(Cl)c5c(NS(=O)(=O)C6CC6)nn(CC(F)F)c45)c([C@H](Cc4cc(F)cc(F)c4)NC(=O)Cn4nc(C(F)F)c5c4C(F)(F)[C@@H]4C[C@H]54)nc3c2)n1` (atropisomer, axis not shown; (P)) [Example 82, N—((S)-1-((3P)-3-(4-chloro-3-(cyclopropanesulfonamido)-1-(2,2-difluoroethyl)-1H-indazol-7-yl)-7-(4-ethyl-6-methylpyrimidin-2-yl)-4-oxo-3,4-dihydroquinazolin-2-yl)-2-(3,5-difluorophenyl)ethyl)-2-((3bS,4aR)-3-(difluoromethyl)-5,5-difluoro-3b,4,4a,5-tetrahydro-1H-cyclopropa[3,4]cyclopenta[1,2-c]pyrazol-1-yl)acetamide] were, in that order, > 500 nM and 0.25 nM.
Turning to `Cn1nc(NS(C)(=O)=O)c2c(Cl)ccc(-n3c([C@H](Cc4cc(F)cc(F)c4)NC(=O)Cn4nc(C(F)F)c5c4C(F)(F)[C@@H]4C[C@H]54)nc4cc(-c5cccc(C6CC6)n5)ccc4c3=O)c21` (atropisomer, axis not shown; (P)) [Example 41, N—((S)-1-((3P)-3-(4-chloro-1-methyl-3-(methylsulfonamido)-1H-indazol-7-yl)-7-(6-cyclopropylpyridin-2-yl)-4-oxo-3,4-dihydroquinazolin-2-yl)-2-(3,5-difluorophenyl)ethyl)-2-((3bS,4aR)-3-(difluoromethyl)-5,5-difluoro-3b,4,4a,5-tetrahydro-1H-cyclopropa[3,4]cyclopenta[1,2-c]pyrazol-1-yl)acetamide], the CC50 at 4 days in data set [1] was > 500 nM. In data set [2], the EC50 was found to be 0.33 nM.
Taken in the same sequence, the figures for `COc1cc(C)nc(-c2ccc3c(=O)n(-c4ccc(Cl)c5c(NS(C)(=O)=O)nn(C)c45)c([C@H](Cc4cc(F)cc(F)c4)NC(=O)Cn4nc(C(F)F)c5c4C(F)(F)[C@@H]4C[C@H]54)nc3c2)c1` (atropisomer, axis not shown; (P)) [Example 57, N—((S)-1-((3P)-3-(4-chloro-1-methyl-3-(methylsulfonamido)-1H-indazol-7-yl)-7-(4-methoxy-6-methylpyridin-2-yl)-4-oxo-3,4-dihydroquinazolin-2-yl)-2-(3,5-difluorophenyl)ethyl)-2-((3bS,4aR)-3-(difluoromethyl)-5,5-difluoro-3b,4,4a,5-tetrahydro-1H-cyclopropa[3,4]cyclopenta[1,2-c]pyrazol-1-yl)acetamide] were > 500 nM and 0.15 nM.
The like results for `Cc1ncc(C)c(-c2ccc3c(=O)n(-c4ccc(Cl)c5c(NS(C)(=O)=O)nn(C)c45)c([C@H](Cc4cc(F)cc(F)c4)NC(=O)Cn4nc(C(F)F)c5c4C(F)(F)[C@@H]4C[C@H]54)nc3c2)n1` (atropisomer, axis not shown; (P)) [Example 77, N—((S)-1-((3P)-3-(4-chloro-1-methyl-3-(methylsulfonamido)-1H-indazol-7-yl)-7-(2,5-dimethylpyrimidin-4-yl)-4-oxo-3,4-dihydroquinazolin-2-yl)-2-(3,5-difluorophenyl)ethyl)-2-((3bS,4aR)-3-(difluoromethyl)-5,5-difluoro-3b,4,4a,5-tetrahydro-1H-cyclopropa[3,4]cyclopenta[1,2-c]pyrazol-1-yl)acetamide] were, in that order, > 500 nM and 0.071 nM.
Taken in the same sequence, the figures for `CS(=O)(=O)Nc1nn(CC(F)F)c2c(-n3c([C@H](Cc4cc(F)cc(F)c4)NC(=O)Cn4nc(C(F)F)c5c4C(F)(F)[C@@H]4C[C@H]54)nc4cc(-c5ncccc5S(C)(=O)=O)ccc4c3=O)ccc(Cl)c12` (atropisomer, axis not shown) [Example 136, N-[(1S)-1-{3-[4-chloro-1-(2,2-difluoroethyl)-3-methanesulfonamido-1H-indazol-7-yl]-7-(3-methanesulfonylpyridin-2-yl)-4-oxo-3,4-dihydroquinazolin-2-yl}-2-(3,5-difluorophenyl)ethyl]-2-[(2S,4R)-9-(difluoromethyl)-5,5-difluoro-7,8-diazatricyclo[4.3.0.0^2,^4]nona-1(6),8-dien-7-yl]acetamide] were > 500 nM and 0.046 nM.
For the compound `COc1ccc(-c2ccc3c(=O)n(-c4ccc(Cl)c5c(NS(C)(=O)=O)nn(C)c45)c([C@H](Cc4cc(F)cc(F)c4)NC(=O)Cn4nc(C(F)F)c5c4C(F)(F)[C@@H]4C[C@H]54)nc3c2)nc1` (atropisomer, axis not shown; (P)) [Example 45, N—((S)-1-((3P)-3-(4-chloro-1-methyl-3-(methylsulfonamido)-1H-indazol-7-yl)-7-(5-methoxypyridin-2-yl)-4-oxo-3,4-dihydroquinazolin-2-yl)-2-(3,5-difluorophenyl)ethyl)-2-((3bS,4aR)-3-(difluoromethyl)-5,5-difluoro-3b,4,4a,5-tetrahydro-1H-cyclopropa[3,4]cyclopenta[1,2-c]pyrazol-1-yl)acetamide], the 50% cytotoxic concentration (CC50) at 4 days in data set [1] was > 500 nM. For the same compound, the EC50 in data set [2] was found to be 0.1 nM.
